Measured values from patent publication US20240124545A1, “COMPOSITIONS AND METHODS RELATING TO THE TREATMENT OF DISEASES” (ILC THERAPEUTICS LIMITED, priority 2021, published 2024).
Where “and” joins values, the source holds several entries; their conditions need not be identical. Equal entries are not always repeated. Where two headings read alike, the source gives them in different places.

Columns and labels:
HIV-1 LAI [1] = test: HIV-1 LAI infectivity assay with β-galactosidase readout (Experiment 5); assay type: cell-based, human immunodeficiency virus type 1 (HIV-1) LAI strain; settings: for HIV infection blocked by control antiviral: 0.5 μM
HIV-1 LAI [2] = settings: for HIV Infectivity in HeLa CD4 βgal cells (β-gal units) - antiviral control / HIV Infectivity in HeLa CD4 βgal cells, percentage of vehicle - antiviral control: single data point
in vitro [3] = settings: human, uninfected HeLa-CD4-βgal cells
in vitro [4] = settings: human, uninfected HeLa-CD4-βgal cells; remark: listed apart in the source
[5] = XTT viability (cytotoxicity) assay, uninfected HeLa-CD4-βgal cells (Experiment 4); settings: human, uninfected HeLa-CD4-βgal cells

enfuvirtide
block of HIV infection by control inhibitor (HIV-1 LAI [1]): completely blocked HIV infection | HIV infection blocked by control antiviral (HIV-1 LAI [1]): ~100% | HIV infection blocked by control antiviral (HIV-1 LAI [1]; listed as T20): over 99% | HIV-1 Infectivity in HeLa-CD4-βgal cells (% vehicle) (HIV-1 LAI [1]; control antiviral 0.5 μM, duplicate data points): 0.0 % vehicle | HIV Infectivity in HeLa CD4 βgal cells (β-galactosidase units) (HIV-1 LAI [1]; control antiviral 0.5 μM, individual values): 3,953 RLU and 3,657 RLU | HIV Infectivity in HeLa CD4 βgal cells (β-galactosidase units) (HIV-1 LAI [2]): 3,399 RLU and 4,452 RLU | HIV Infectivity in HeLa-CD4-βgal cells (% vehicle) (HIV-1 LAI [2]): 0.1 % vehicle | HIV Infectivity in HeLa CD4 βgal cells (β-gal units) - antiviral control (HIV-1 LAI [2]; 0.00005 μM): 1,159,781 RLU | HIV Infectivity in HeLa CD4 βgal cells, percentage of vehicle - antiviral control (HIV-1 LAI [2]; 0.00005 μM): 102.2 % vehicle | HIV Infectivity in HeLa CD4 βgal cells (β-gal units) - antiviral control (HIV-1 LAI [2]; 0.0003 μM): 1,083,305 RLU | HIV Infectivity in HeLa CD4 βgal cells, percentage of vehicle - antiviral control (HIV-1 LAI [2]; 0.0003 μM): 95.4 % vehicle | HIV Infectivity in HeLa CD4 βgal cells (β-gal units) - antiviral control (HIV-1 LAI [2]; 0.001 μM): 1,061,348 RLU | HIV Infectivity in HeLa CD4 βgal cells, percentage of vehicle - antiviral control (HIV-1 LAI [2]; 0.001 μM): 93.5 % vehicle | HIV Infectivity in HeLa CD4 βgal cells (β-gal units) - antiviral control (HIV-1 LAI [2]; 0.006 μM): 518,832 RLU | HIV Infectivity in HeLa CD4 βgal cells, percentage of vehicle - antiviral control (HIV-1 LAI [2]; 0.006 μM): 45.5 % vehicle | HIV Infectivity in HeLa CD4 βgal cells (β-gal units) - antiviral control (HIV-1 LAI [2]; 0.03 μM): 73,650 RLU | HIV Infectivity in HeLa CD4 βgal cells, percentage of vehicle - antiviral control (HIV-1 LAI [2]; 0.03 μM): 6.2 % vehicle | HIV Infectivity in HeLa CD4 βgal cells (β-gal units) - antiviral control (HIV-1 LAI [2]; 0.2 μM): 19,736 RLU | HIV Infectivity in HeLa CD4 βgal cells, percentage of vehicle - antiviral control (HIV-1 LAI [2]; 0.2 μM): 1.5 % vehicle | HIV infection blocked by control antivirals (HIV-1 LAI [2]; 0.5 μM): ~100% | HIV Infectivity in HeLa CD4 βgal cells (β-gal units) - antiviral control (HIV-1 LAI [2]; 0.8 μM): 2,604 RLU | HIV Infectivity in HeLa CD4 βgal cells, percentage of vehicle - antiviral control (HIV-1 LAI [2]; 0.8 μM): 0.0 % vehicle | HIV Infectivity in HeLa CD4 βgal cells (β-gal units) - antiviral control (HIV-1 LAI [2]; 4.0 μM): 1,950 RLU | HIV Infectivity in HeLa CD4 βgal cells, percentage of vehicle - antiviral control (HIV-1 LAI [2]; 4.0 μM): −0.1 % vehicle | HIV Infectivity in HeLa CD4 βgal cells (β-gal units) - antiviral control (HIV-1 LAI [2]; 20 μM): 1,538 RLU | HIV Infectivity in HeLa CD4 βgal cells, percentage of vehicle - antiviral control (HIV-1 LAI [2]; 20 μM): −0.1 % vehicle | loss of cell viability with control inhibitor (HeLa-CD4-βgal cells): minimal loss of cell viability | viability at 48 h, 5e-05 µM (in vitro [3]): 87.9% | viability at 48 h, 0.0003 µM (in vitro [3]): 87.4% | viability at 48 h, 0.001 µM (in vitro [3]): 81.4% | viability at 48 h, 0.006 µM (in vitro [3]): 83.7% | viability at 48 h, 0.03 µM (in vitro [3]): 79.6% | viability at 48 h, 0.2 µM (in vitro [3]): 82.5% | viability at 48 h, 0.8 µM (in vitro [3]): 83.8% | viability at 48 h, 4 µM (in vitro [3]): 74.4% | viability at 48 h, 20 µM (in vitro [3]): 57.1% | viability at 48 h, 0.5 µM (in vitro [4]): 93.1 ± 2.3% | CC50 at 48 h [5]: > 20 µM
